Measured values: patent US20240131022A1 (published 2024)

Experiments:
k-receptor = k-receptor (Homo sapiens, UniProt P41145); test: cell-based; conditions: read-out: k-receptor activation (IC50 or %)
δ-receptor = δ-receptor (Homo sapiens, UniProt P41143); test: Functional profile in CHO transfected cells, δ-receptor inhibition; format: cell-based
[1] = Stability in brain homogenate; conditions: within the time frame of the study
μ-receptor = μ-receptor (Homo sapiens, UniProt P35372); test: cell-based
Chain of μ-receptor (P35372 whole entry): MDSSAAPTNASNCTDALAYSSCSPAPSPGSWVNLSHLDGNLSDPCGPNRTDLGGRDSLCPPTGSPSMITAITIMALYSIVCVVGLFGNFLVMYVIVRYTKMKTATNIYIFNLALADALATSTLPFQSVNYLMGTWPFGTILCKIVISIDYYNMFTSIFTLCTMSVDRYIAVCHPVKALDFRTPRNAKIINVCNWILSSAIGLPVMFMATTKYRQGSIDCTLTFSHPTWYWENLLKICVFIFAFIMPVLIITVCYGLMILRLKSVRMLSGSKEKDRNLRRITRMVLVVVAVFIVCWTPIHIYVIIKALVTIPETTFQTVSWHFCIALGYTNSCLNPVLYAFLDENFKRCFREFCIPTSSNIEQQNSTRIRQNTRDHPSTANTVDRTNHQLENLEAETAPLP

Chain of δ-receptor (P41143 whole entry): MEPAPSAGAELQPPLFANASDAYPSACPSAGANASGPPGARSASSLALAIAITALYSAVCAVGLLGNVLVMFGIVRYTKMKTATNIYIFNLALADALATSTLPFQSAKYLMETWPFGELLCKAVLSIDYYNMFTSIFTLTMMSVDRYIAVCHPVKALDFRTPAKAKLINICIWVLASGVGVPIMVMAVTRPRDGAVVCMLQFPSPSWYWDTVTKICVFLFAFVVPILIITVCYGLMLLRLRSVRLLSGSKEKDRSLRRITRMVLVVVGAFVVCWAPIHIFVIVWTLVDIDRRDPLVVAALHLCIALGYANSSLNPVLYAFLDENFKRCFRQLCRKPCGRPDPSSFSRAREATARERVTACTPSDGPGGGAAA
Chain of k-receptor (P41145 whole entry): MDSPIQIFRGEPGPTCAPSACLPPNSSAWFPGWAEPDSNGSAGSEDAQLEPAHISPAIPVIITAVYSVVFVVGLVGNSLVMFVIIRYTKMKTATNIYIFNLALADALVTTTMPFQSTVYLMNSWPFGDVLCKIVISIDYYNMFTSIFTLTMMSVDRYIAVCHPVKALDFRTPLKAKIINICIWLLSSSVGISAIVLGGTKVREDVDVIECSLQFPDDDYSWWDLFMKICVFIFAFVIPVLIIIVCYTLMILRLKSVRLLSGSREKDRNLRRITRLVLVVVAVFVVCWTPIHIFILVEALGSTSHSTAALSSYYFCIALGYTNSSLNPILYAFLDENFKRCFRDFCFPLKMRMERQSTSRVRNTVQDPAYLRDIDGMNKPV

Row | SMILES | activation at 1 µM (k-receptor) [%] | IC50 (δ-receptor) [µM] | intact in brain homogenate [1] [%] | inhibition at 1 µM (μ-receptor; read-out: μ-receptor inhibition (IC50 or %)) [%] | IC50 (μ-receptor) [µM]
1 | C/C=C/C=C/C(=O)Oc1ccc2c3c1OC1C(O)CCC4(O)C(C2)N(CC2CCC2)CCC314 (stereo not shown) [NB33, 3-hexadienoate derivative of nalbuphine] | 22.3 | > 10 | 65±6 | 82.8 | –
2 | C=CCN1CCC23c4c5ccc(OC(=O)/C=C/C=C/C)c4OC2C(=O)CCC3(O)C1C5 (stereo not shown) [NX90, 3-hexadienoate derivative of naloxone] | – | > 10 | 85±13 | – | 0.137 ± 0.012
